The source of these data is ChEMBL document CHEMBL1201862, “PubChem BioAssay data set” (2004).

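96-well plates; 48 h exposure; 5 concentrations. Endpoints by linear interpolation between flanking doses. Not reached: highest tested concentration assigned. GI50 = concentration required for 50% inhibition of growth.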 Active and inactive are the calls of the source. No stated cut-off is given here; in the data, active = GI50 up to about 1.1 µM and inactive = higher.

Test systems include 786-0; A498; A549; ACHN; COLO 205; DU-145; HOP-92; IGROV-1; KM12; M14; MDA-MB-435; MOLT-4; NCI/ADR-RES; OVCAR-3; OVCAR-8; SF-268; SF-295; SK-MEL-2; SK-OV-3; U-251.
Common to all, as to assay: NCI-60 cell line screen, 48 h

For the compound `CN(C)CCCN1C(=S)N(CCCN(C)C)c2c3cc(O)ccc3nc3c([N+](=O)[O-])ccc1c23`, the GI50 in the test with 786-0 was 1.07 µM (active); with A498 it was 0.839 µM (active); in the test on A549, 0.743 µM (active); in the test on ACHN, 0.703 µM (active); with COLO 205, 1.12 µM (inactive); in the test on DU-145 it was 2.47 µM (inactive). Also, the GI50 in the test on HOP-92 is 2.38 µM (inactive); in the test on IGROV-1, 0.7 µM (active); in the test with KM12 it was 2.7 µM (inactive); in the test on M14, 7.05 µM (inactive); with MDA-MB-435, 4.2 µM (inactive); in the test with MOLT-4 it was 0.0953 µM (active). In addition, the GI50 in the test with NCI/ADR-RES is 6.07 µM (inactive); with OVCAR-3, 1.68 µM (inactive); with OVCAR-8 it was 1.87 µM (inactive); with SF-268 it was 1.53 µM (inactive); in the test on SF-295 it was 3.37 µM (inactive); with SK-MEL-2, 6.47 µM (inactive). In addition, the GI50 was 4.11 µM (inactive) in the test on SK-OV-3 and 2.46 µM (inactive) in the test on U-251.
For `O=C(O)C1OC1(c1cccc(Cl)c1)c1ccccc1Cl` (stereo not given), the GI50 was 43.1 µM (inactive) in the test with 786-0; 79.1 µM (inactive) in the test with A498; 35.8 µM (inactive) in the test with A549; 31.7 µM (inactive) in the test on ACHN; 53.3 µM (inactive) with COLO 205; 26.1 µM (inactive) in the test with DU-145. The GI50 in the test with HOP-92 is 23.1 µM (inactive); with IGROV-1, 34.9 µM (inactive); in the test with KM12, 29.6 µM (inactive); in the test on M14, 18.8 µM (inactive); in the test on MDA-MB-435, 22.9 µM (inactive); in the test with MOLT-4, 27.5 µM (inactive). Moreover, the GI50 is 18.1 µM (inactive) with NCI/ADR-RES; 16.1 µM (inactive) in the test on OVCAR-3; 32.1 µM (inactive) in the test with OVCAR-8; 20.6 µM (inactive) in the test on SF-268; 25.7 µM (inactive) in the test with SF-295; 15.7 µM (inactive) with SK-MEL-2. Besides, the GI50 was 22.5 µM (inactive) with SK-OV-3 and 11.1 µM (inactive) with U-251.
Take `COC1C(O)=C2C(=O)OC(C)(O)/C=C/C=C\C=C/C=C/C(c3ccccc3)NC(=O)/C=C/C=C/C=C/C=C/C2(C)C1O` (stereo not given): the GI50 in the test on 786-0 was 0.00787 µM (active); in the test with A498, 0.0137 µM (active); in the test on A549 it was 0.00105 µM (active); in the test with ACHN it was 0.00488 µM (active); with COLO 205, 0.00124 µM (active); with DU-145, 0.00533 µM (active). Further, the GI50 in the test with HOP-92 was 0.00146 µM (active); in the test with IGROV-1, 0.0165 µM (active); in the test on KM12 it was 0.00679 µM (active); in the test on M14 it was 0.0792 µM (active); in the test with MDA-MB-435 it was 0.0193 µM (active); with MOLT-4, 0.0102 µM (active). Further, the GI50 was 0.00861 µM (active) in the test with NCI/ADR-RES; 0.0445 µM (active) in the test with OVCAR-3; 0.0034 µM (active) with OVCAR-8; 0.0171 µM (active) in the test with SF-268; 0.0111 µM (active) in the test on SF-295; 0.0361 µM (active) in the test on SK-MEL-2. Moreover, the GI50 is 0.0253 µM (active) with SK-OV-3 and 0.00522 µM (active) in the test with U-251.
On to `O=C(O)C(Cc1c[nH]c2ccccc12)C(=O)NO` (stereo not given), for which the GI50 in the test on 786-0, in the test on A498, in the test on A549, in the test on ACHN, with COLO 205 and in the test on DU-145 was > 100 µM (inactive) in each case. Also, the GI50 with HOP-92, with IGROV-1, in the test with KM12, with M14, with MDA-MB-435 and with MOLT-4 was > 100 µM (inactive) in each case. Also, the GI50 is > 100 µM (inactive) in the test with NCI/ADR-RES; 96.8 µM (inactive) in the test with OVCAR-3; > 100 µM (inactive) in the test with OVCAR-8; > 100 µM (inactive) with SF-268; > 100 µM (inactive) with SF-295; > 100 µM (inactive) with SK-MEL-2. Also, the figures for the GI50 in the test with SK-OV-3 and with U-251 were > 100 µM (inactive) and 49.8 µM (inactive), respectively.
On to `O[C@H]1[C@@H]2OC[C@@H](O)[C@H](OCc3ccccc3)[C@@](COCc3ccccc3)(O2)[C@@H]1OCc1ccccc1`, for which the GI50 with 786-0 was 19.9 µM (inactive); in the test with A498 it was 17.5 µM (inactive); with A549, 17.1 µM (inactive); with ACHN, 16.7 µM (inactive); in the test with COLO 205, 18.2 µM (inactive); in the test with DU-145, 18.5 µM (inactive). The GI50 was 10.2 µM (inactive) in the test on HOP-92; 13.9 µM (inactive) in the test with IGROV-1; 17.2 µM (inactive) in the test on KM12; 17.3 µM (inactive) in the test with M14; 17.3 µM (inactive) in the test on MDA-MB-435; 30.7 µM (inactive) with MOLT-4. The GI50 in the test on NCI/ADR-RES was 16.7 µM (inactive); in the test on OVCAR-3 it was 5.46 µM (inactive); in the test with OVCAR-8 it was 16.7 µM (inactive); with SF-268 it was 22.2 µM (inactive); with SF-295 it was 12.6 µM (inactive); in the test on SK-MEL-2, 15.2 µM (inactive). Further, the GI50 was 21.6 µM (inactive) in the test with SK-OV-3 and 16 µM (inactive) in the test with U-251.
Turning to `N=C(N)NCCCC(NC(=O)c1c2ccccc2nc2ccccc12)C(=O)O` (stereo not given), the GI50 in the test on 786-0, in the test with A498, in the test on A549, with ACHN, with COLO 205 and with DU-145 was > 100 µM (inactive) in each case. The GI50 in the test on HOP-92, with IGROV-1, in the test on KM12, in the test on M14, in the test on MDA-MB-435 and with MOLT-4 was > 100 µM (inactive) in each case. For the same compound, the GI50 with NCI/ADR-RES, in the test with OVCAR-3, in the test with OVCAR-8, in the test with SF-268, in the test with SF-295 and in the test with SK-MEL-2 was > 100 µM (inactive) each time. Further, the GI50 in the test with SK-OV-3 and in the test on U-251 was > 100 µM (inactive) in each case.
Consider `O=C1c2cc3c(cc2CC12Cc1cc4c(cc1C2=O)CCCC4)CCCC3`, for which the GI50 in the test with 786-0 was 21.1 µM (inactive); in the test with A498 it was > 100 µM (inactive); in the test with A549 it was 59.2 µM (inactive); with ACHN, 62.1 µM (inactive); in the test on COLO 205 it was > 100 µM (inactive); with DU-145, 66.1 µM (inactive). Besides, the GI50 was 18.9 µM (inactive) with HOP-92; 71 µM (inactive) with IGROV-1; > 100 µM (inactive) in the test on KM12; 65.2 µM (inactive) with M14; > 100 µM (inactive) with MDA-MB-435; > 100 µM (inactive) in the test with MOLT-4. The GI50 with NCI/ADR-RES is 24.6 µM (inactive); in the test on OVCAR-3, 23.7 µM (inactive); in the test with OVCAR-8 it was > 100 µM (inactive); with SF-268 it was 29.3 µM (inactive); in the test on SF-295 it was 23.2 µM (inactive); in the test on SK-MEL-2, 75.9 µM (inactive). Besides, the values for the GI50 in the test with SK-OV-3 and in the test with U-251 were 70 µM (inactive) and 30.8 µM (inactive), respectively.
On to `O=c1c2cc(-c3ccccc3)cnc2sn1-c1ccc(Br)cc1`, for which the GI50 with 786-0, in the test on A498, in the test with A549, in the test with ACHN, with COLO 205 and with DU-145 was > 100 µM (inactive) in each case. In addition, the GI50 in the test on HOP-92 is > 100 µM (inactive); in the test with IGROV-1, 58.1 µM (inactive); with KM12, > 100 µM (inactive); in the test on M14, > 100 µM (inactive); in the test on MDA-MB-435 it was > 100 µM (inactive); in the test on MOLT-4, > 100 µM (inactive). In addition, the GI50 was > 100 µM (inactive) with NCI/ADR-RES; 37 µM (inactive) with OVCAR-3; > 100 µM (inactive) in the test on OVCAR-8; > 100 µM (inactive) with SF-268; > 100 µM (inactive) with SF-295; > 100 µM (inactive) in the test with SK-MEL-2. Besides, the GI50 in the test on SK-OV-3 and in the test on U-251 was > 100 µM (inactive) each time.
Turning to `O=C(N/N=C/C=C/c1ccc([N+](=O)[O-])o1)c1ccc(C(=O)N/N=C/C=C/c2ccc([N+](=O)[O-])o2)cc1`, the GI50 in the test on 786-0 was 20.1 µM (inactive); in the test with A498, > 100 µM (inactive); in the test on A549, > 100 µM (inactive); with ACHN it was 32.6 µM (inactive); with COLO 205 it was 36 µM (inactive); in the test with DU-145, > 47 µM (inactive). Further, the GI50 in the test on HOP-92 is > 62.8 µM (inactive); in the test with IGROV-1, 46.8 µM (inactive); in the test with KM12, > 100 µM (inactive); in the test with M14 it was 14.8 µM (inactive); in the test on MDA-MB-435, 37.2 µM (inactive); in the test on MOLT-4 it was 5.42 µM (inactive). The GI50 in the test with NCI/ADR-RES was 36.7 µM (inactive); in the test on OVCAR-3, 31.7 µM (inactive); in the test on OVCAR-8, 13.2 µM (inactive); in the test with SF-268 it was 15.8 µM (inactive); in the test with SF-295 it was > 85.5 µM (inactive); in the test on SK-MEL-2 it was > 69.2 µM (inactive). In addition, the GI50 was > 100 µM (inactive) in the test on SK-OV-3 and 17.3 µM (inactive) with U-251.
For the compound `COC(=O)c1ccccc1C1CN=NC12Cc1cc3c(cc1C2=O)CCC3` (stereo not given), the GI50 in the test on 786-0 is > 100 µM (inactive); with A498, > 100 µM (inactive); in the test on A549, 63.4 µM (inactive); with ACHN, > 100 µM (inactive); with COLO 205 it was 41.9 µM (inactive); with DU-145, > 100 µM (inactive). The GI50 in the test with HOP-92 was 30.7 µM (inactive); in the test with IGROV-1, > 100 µM (inactive); with KM12, 32.1 µM (inactive); in the test on M14, 49.4 µM (inactive); with MDA-MB-435, 44.5 µM (inactive); in the test on MOLT-4, 35.5 µM (inactive). Moreover, the GI50 with NCI/ADR-RES is 37.8 µM (inactive); with OVCAR-3 it was 82.4 µM (inactive); in the test on OVCAR-8, 48.2 µM (inactive); in the test on SF-268, 62.4 µM (inactive); in the test with SF-295, 54.2 µM (inactive); in the test on SK-MEL-2, > 100 µM (inactive). The GI50 is 86.9 µM (inactive) in the test with SK-OV-3 and 70.3 µM (inactive) in the test on U-251.
